Test results reported in patent US8101740B2, “Positron emission tomography probes for imaging immune activation and selected cancers” (The Regents of the University of California, priority 2007, dated 2012).
Where two headings read alike, the source gives them in different places.

Tests used:
[1] = test system: L1210 murine leukemia cells (dCK^+); assay: radioactive tracer uptake assay, L1210 parental cells; assay type: cell-based; conditions: for dependence of retention and phosphorylation on dCK expression: L1210 wild type vs 10K cells, 1 hour incubation
From the text: (§1) To evaluate whether [^18F]D-FAC PET can determine resistance to gemcitabine and Ara-C, we used a previously described experimental model based on the L1210 murine leukemia cells and their gemcitabine/Ara-C resistant 10K derivatives^20. The molecular defect responsible for resistance in the L1210 10K cells is loss of dCK expression due to a genetic modification of chromosome 5 in the 3′ region of the dCK gene. The 10K cell line was derived by exposing the parental L1210 cells to increasing concentrations of gemcitabine^20; before experiments, we confirmed that L1210 10K cells lack expression of dCK at the protein level (FIG. 13). Thus, to determine whether D-FAC retention correlates with gemcitabine resistance in these cells, we performed radioactive tracer uptake assays using [^3H]D-FAC with [^3H]-FLT used as a negative control. We observed that the gemcitabine-resistant L1210-10K cell line retained much lower amounts of [^3H]D-FAC in contrast to the gemcitabine-sensitive L1210 parental cell line (FIG. 14A). In fact, [^3H]D-FAC uptake was 40-fold higher in dCK^+ cells compared to cells lacking dCK activity (dCK^+=1288 fmols/1×10^5 cells; dCK-=34 fmols/1×10^5 cells; p<0.001). In contrast, [^3H]FLT uptake was indistinguishable between these cell lines. FIG. 14B presents a [^3H]D-FAC kinase assay with the L1210 cell lines using [^3H]D-FAC as a substrate (1 microgram protein/reaction). In dCK positive cells shown in FIG. 14B, D-FAC phosphorylation was 52-fold higher than in dCK deficient cells (dCK^+=62 fmols; dCK^−=1.2 fmols; p=0.028). Reintroduction of dCK into the L1210-10K cells restored [^18F]D-FAC uptake and phosphorylation (FIG. 14), thus further confirming the critical role of this nucleoside kinase in regulating D-FAC metabolism.
(§2) Each cell type was incubated separately with each of the following: [^18F]L-FAC, and [^18F]-CA, and the positive control [^18F]D-FAC. The cells were incubated with [^18F]L-FAC, [^18F]-CA, and [^18F]D-FAC for 1 hour. Following successive washes, intracellular radioactivity was measured by scintillation counting to obtain the result shown in FIG. 17A.

[2] = test system: L1210 wild type or 10K subcutaneous tumors; assay: PET of subcutaneous L1210 wild type and 10K tumors; assay type: in vivo, SCID mice
Description: To investigate whether [^18F]D-FAC PET can distinguish gemcitabine-sensitive cancer cells from the resistant cancer cells in vivo, mice were injected with L1210 wild type or 10K cells to establish subcutaneous tumors; mice were scanned with [^18F]FDG PET to confirm that implanted cells were viable and growing in vivo and [^18F]D-FAC PET scans were carried out to compare D-FAC accumulation in gemcitabine sensitive versus resistant cells. […] The mice were injected 4 days prior to imaging.
Mice were challenged with the MoMSV onco-retrovirus.

[3] = chromatography of plasma after intravenous injection of probe (deamination); assay type: in vivo, C57BL/6 mouse; conditions: plasma 10 and 45 minutes after intravenous injection
[4] = test system: pancreatic inflammatory lesions; assay: PET/CT scan of human with chronic pancreatitis; assay type: in vivo; conditions: person
From the text: FIG. 30 presents PET/CT scans of a human with chronic pancreatitis. The pancreas head 301 is visible.

[5] = chromatography after incubation of probe with human plasma; conditions: 10 and 45 minutes incubation
Description: FIG. 19 presents chromatographs of [^18F]D-FAC (FIG. 19C) and [^18F]L-FAC (FIG. 19D) in plasma 10 minutes and 45 minutes after the probe was incubated with human plasma.

[6] = test system: T lymphocytes from pmel-1 T cell receptor (TCR) transgenic mice; assay: retention of ^3H-labeled nucleoside analogs in naïve and proliferating primary T cells; assay type: cell-based, mouse
Description: In order to identify candidates for PET probes that can distinguish between activated T cells and non-activated, naïve T cells, we conducted a radioactive uptake assay, the results of which are shown in FIG. 1. […] These measurements were performed after incubating cells with radioactive compounds for 1 hr and performing successive washes to remove unincorporated probes. […] For example, we identified compounds #1 through #15 (see FIG. 2A for chemical structures) as PET probe candidates useful for detecting activated T cells. FIG. 2A presents substrates of dCK labeled with the ^18F positron emitting radioisotope.
T lymphocytes from pmel-1 T cell receptor (TCR) transgenic mice were stimulated ex vivo using a melanoma antigen (1 micromolar hgp 10025-33). These cells were then cultured for radioactive uptake and kinase assays that were performed 72 hours post-stimulation. […] The plate was then washed 5 times with media containing 5% fetal calf serum (FCS) by using the Millipore Vacuum Manifold (Billerica, Mass.); the amount of incorporated probe was measured by scintillation counting using the PerkinElmer Microbeta (Waltham, Mass.). […]
FIG. 1 identifies fluorinated deoxycytidine analogs retained in activated versus naive T lymphocytes and incorporated into DNA. […] Following successive washes, intracellular radioactivity was measured by scintillation counting. […]

[7] = test system: NIH3T3 fibroblasts engineered to overexpress nucleoside kinases (dCK) and the nucleoside transporter SLC29A1; assay: [^3H]D-FAC uptake in engineered NIH3T3 fibroblasts; assay type: cell-based
[8] = test system: L1210-10K cell line (lacking dCK); assay: radioactive tracer uptake assay, L1210-10K cells; assay type: cell-based, murine
From the text: To evaluate whether [^18F]D-FAC PET can determine resistance to gemcitabine and Ara-C, we used a previously described experimental model based on the L1210 murine leukemia cells and their gemcitabine/Ara-C resistant 10K derivatives^20. The molecular defect responsible for resistance in the L1210 10K cells is loss of dCK expression due to a genetic modification of chromosome 5 in the 3′ region of the dCK gene. The 10K cell line was derived by exposing the parental L1210 cells to increasing concentrations of gemcitabine^20; before experiments, we confirmed that L1210 10K cells lack expression of dCK at the protein level (FIG. 13). Thus, to determine whether D-FAC retention correlates with gemcitabine resistance in these cells, we performed radioactive tracer uptake assays using [^3H]D-FAC with [^3H]-FLT used as a negative control. We observed that the gemcitabine-resistant L1210-10K cell line retained much lower amounts of [^3H]D-FAC in contrast to the gemcitabine-sensitive L1210 parental cell line (FIG. 14A). […]
Each cell type was incubated separately with each of the following: [^18F]L-FAC, and [^18F]-CA, and the positive control [^18F]D-FAC. […] Following successive washes, intracellular radioactivity was measured by scintillation counting to obtain the result shown in FIG. 17A.

[9] = molecular target: T1, deoxycytidine kinase (dCK) (Mus musculus, UniProt P43346); assay: kinase assay with L1210 cell line lysates; assay type: biochemical, murine
T1 construct: endogenous in cells; host or cells: L1210 murine leukemia cells (wild type), whole-cell lysate; L1210-10K (dCK-deficient) as negative control
From the text: as §1, §2
(§3) Lysates from L1210 wildtype (WT) and dCK deficient (10K) cells were incubated for 20 minutes with [^18F]L-FMAC; phosphorylated products were measured by scintillation counting.

[10] = test system: deoxycytidine kinase (dCK); assay: kinase assay with L1210 cell line lysates; assay type: biochemical, murine; conditions: dCK^− cells; 1 microgram protein/reaction
From the text: as §1, §2, §3

MoMSV-induced sarcomas = assay: microPET/CT in oncoretrovirus (MoMSV) sarcoma model of anti-tumor immunity
Description: All the mice used in these studies were bred and maintained according to the guidelines of the Department of Laboratory Animal Medicine (DLAM) at the University of California, Los Angeles. For the oncoretrovirus-induced sarcoma model, C57/BL6 mice were challenged intramuscularly in the right triceps with the Moloney murine sarcoma and leukemia virus complex (MoMSV) in a volume of 100 uL of PBS as described previously^6. B6-MRL-Fas^1pr/J mice used for systemic autoimmunity studies were purchased from the Jackson Laboratory (stock number 000482). To monitor the immunosuppressive treatment, these mice were given intraperitoneal injections of dexamethasone (DEX, 10 mg/kg) at 24 hr intervals and were scanned by microPET/CT 24 hr after the last injection. Animals were anesthetized with 2% isoflurane, injected intravenously with 200 microCi [^18F]D-FAC and then scanned with microPET/CT; mice were sacrificed immediately after imaging. Organs were rapidly excised, weighed, and the radioactivity was measured in a well counter. After decay correction, results were expressed as percent of the injected dose of activity per gram of tissue (% ID/g). Other mice were anesthetized with 2% isoflurane and injected intravenously with 1 mCi [^18F]D-FAC. After 1 hr, mice were euthanized, embedded in 3% carboxymethyl cellulose (CMC, Sigma), and frozen in 100% ethanol with dry ice for 45 min. The 50 micron sections were cut using a whole body cryostat, (PMV, Stockholm, Sweden); samples were exposed overnight on BAS-TR2025 plates (Fujifilm Life Science, Stamford, Conn.). Imaging plates were read using a Fujibas-5000 phosphorimager (16 bit, 25 micron resolution; Fujifilm Life Science).
In this model, antigen-specific T cells primed by immunodominant epitopes encoded by viral gag and env genes rapidly expand in spleen and tumor draining lymph nodes (DLNs) and then traffic to the tumor lesion which is rejected over a period of 2-5 weeks^17,18. In fact, the kinetics of T cell responses against MoMSV-induced sarcomas have been studied extensively using conventional ex vivo approaches and our group has used PET reporter gene imaging to visualize tumor rejection in this model^17. To analyze whether the [^18F]D-FAC microPET/CT imaging can detect sites of localized immune activation, mice were scanned before and after the virus challenge.
To determine whether [^18F]D-FAC can provide unique information regarding localized immune activation via the afore-mentioned model, the mice imaged by [^18F]D-FAC were also scanned on consecutive days using [^18F]FDG and [^18F]FLT.

[11] = spleen, 60 min after intravenous injection, 3 mice
[12] = C57/BL6, mouse, in vivo, iv, 60 min

T1 sequence (P43346 whole entry): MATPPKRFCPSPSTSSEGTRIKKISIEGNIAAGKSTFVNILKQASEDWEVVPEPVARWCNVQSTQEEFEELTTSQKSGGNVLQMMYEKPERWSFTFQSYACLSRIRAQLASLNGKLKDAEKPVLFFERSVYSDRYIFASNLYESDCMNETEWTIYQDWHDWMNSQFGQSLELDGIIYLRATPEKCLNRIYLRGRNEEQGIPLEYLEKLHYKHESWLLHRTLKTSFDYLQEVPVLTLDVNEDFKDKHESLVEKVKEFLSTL

## Nc1ccn([C@H]2O[C@@H](CO)[C@H](O)[C@H]2[18F])c(=O)n1 [[^18F]L-FAC, 1-(2′-deoxy-2′-[^18F]fluoro-β-L-arabinofuranosyl)cytosine]
[1]
  dependence of retention and phosphorylation on dCK expression: requires dCK expression
[2]; L1210-10K, 4 days after injection
  retention/visualization in dCK deficient, gemcitabine resistant tumors: not visualization
[2]; L1210 WT, 4 days after injection
  retention/visualization in dCK positive, gemcitabine sensitive tumors: allows visualization
[3]
  resistance to deamination in plasma after injection into mice: more resistant to deamination than [^18F]D-FAC
[4]
  accumulation in pancreatic inflammatory lesions: clear accumulation
60 minutes after intravenous injection
  biodistribution compared with [^18F]D-FAC: resembles that of [^18F]D-FAC
[5]
  stability in human plasma: improved stability relative to [^18F]D-FAC

## Nc1ccn(C2O[C@H](CO)[C@@H](O)[C@@H]2F)c(=O)n1 (stereo partly drawn) [[^3H]D-FAC, 1-(2′-deoxy-2′-fluoro-arabinofuranosyl) cytosine]
[6]
  incorporation into DNA of proliferating T cells: incorporated in the DNA
[7]
  uptake in cells overexpressing dCK and SLC29A1: increased uptake
[1]; dCK^+ cells
  uptake: 1288 fmols/1×10^5 cells
[1]; p<0.001
  uptake in dCK^+ cells compared to cells lacking dCK activity: 40 fold
[8]
  uptake: 34 fmols/1×10^5 cells
[9]; dCK^+ cells, 1 microgram protein/reaction
  phosphorylation: 62 fmols
[9]; p=0.028
  phosphorylation in dCK positive cells versus dCK deficient cells: 52 fold
[10]
  phosphorylation: 1.2 fmols

## Nc1nc(Cl)nc2c1ncn2[C@@H]1O[C@H](CO)[C@@H](O)[C@@H]1[18F] [[^18F]-CA, 2-chloro-9-(2′-deoxy-2′-[^18F]fluoro-β-D-arabinofuranosyl)adenine]
[1]
  dependence of retention and phosphorylation on dCK expression: requires dCK expression

## Cc1cn([C@@H]2O[C@H](CO)[C@@H](O)[C@@H]2F)c(=O)[nH]c1=O [[^18F]FMAU, 1-(2′-Deoxy-2′-fluoro-β-D-arabinofuranosyl)-5-methyluracil]
60 min after intravenous injection
  accumulation in thymus and spleen: neither [^18F]FLT nor [^18F]D-FMAU showed detectable accumulation
[11]
  Spleen, % ID/g per organ normalized to % ID/g muscle: 1.08 +/− 0.27 % ID/g per organ normalized to % ID/g muscle
thymus, 60 min after intravenous injection, 3 mice
  Thymus, % ID/g per organ normalized to % ID/g muscle: 1.33 +/− 0.24 % ID/g per organ normalized to % ID/g muscle

## Cc1cn([C@H]2O[C@@H](CO)[C@H](O)[C@H]2[18F])c(=O)nc1N [[^18F]L-FMAC]
[9]; L1210 WT and 10K lysates, 20 minutes incubation
  dependence of retention and phosphorylation on dCK expression: requires dCK expression
[3]
  resistance to deamination in plasma after injection into mice: resistant to deamination

## Cc1cn([C@H]2C[C@H](F)[C@@H](CO)O2)c(=O)[nH]c1=O [[^3H]FLT, 3′-fluoro-3′-deoxythymidine, reference compound]
[1]; negative control
  uptake compared between L1210 and L1210-10K cell lines: indistinguishable

## Nc1ccn([C@@H]2O[C@H](CO)[C@@H](O)C2(F)F)c(=O)n1 [dFdC, 2′,2′-difluorodeoxycytidine, reference compound]
[6]; 1 hr incubation, 72 hrs after stimulation
  difference in probe retention by proliferating compared to naïve T cells: > 20 fold

## 2-[^18F]fluoro-2-deoxy-D-glucose [[^18F]FDG, reference compound]
MoMSV-induced sarcomas; tumor lesions
  accumulation in tumor over background (contralateral muscle tissue): 8.2±4.2 % ID/g tumor over background
[2]; mouse, in vivo
  accumulation in gemcitabine sensitive versus resistant cells: equivalent
mouse, in vivo
  retention in the brain and the myocardium: substantially accumulates
[11]
  Spleen, % ID/g per organ normalized to % ID/g muscle: 1.69 +/− 0.16 % ID/g per organ normalized to % ID/g muscle

## Cc1cn([C@H]2C[C@H](F)[C@@H](CO)O2)c(=O)[nH]c1=O [[^18F]FLT, 3′-fluoro-3′-deoxythymidine]
MoMSV-induced sarcomas; day 14
  accumulation at sites of immune activation: no detectable
[12]
  Spleen, % ID/g per organ normalized to % ID/g muscle: 1.02 +/− 0.21 % ID/g per organ normalized to % ID/g muscle
  Thymus, % ID/g per organ normalized to % ID/g muscle: 1.22 +/− 0.23 % ID/g per organ normalized to % ID/g muscle
  accumulation in thymus and spleen: neither [^18F]FLT nor [^18F]D-FMAU showed detectable accumulation
